Measurements from US9561228B2 (Celgene Avilomics Research, Inc., priority 2013, dated 2017).
Where two headings read alike, the source gives them in different places.

How the values were obtained:
[1] = target: T1, MEK1 activated ERK1 (Homo sapiens, UniProt P27361); experiment: Omnia continuous-read kinase assay for potency against MEK1 activated ERK1; type: biochemical
T1 construct: purchased Millipore (Billerica, Mass.) 14-439-K
How it was run: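 Apparent IC50 came from initial reaction slopes (RFU vs time) plotted against log inhibitor with a variable-slope fit. Reactions were started with ERK1 (4 nM final) added to 50 μM ATP, roughly at its appKM, and 10 μM Sox-conjugated ST17 peptide in 20 mM Tris pH 7.5, 5 mM MgCl2. Fluorescence was monitored every 71 seconds.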

[2] = system: ERK1/2 phosphorylation of p90RSK in HCT116 cells; experiment: Detection of total and phospho-RSK by MSD ELISA (HCT116); type: cell-based; settings: Homo sapiens, HCT-116, read-out: ERK1/ERK2 PRSK HCT116 EC50
Method: Detection of Total and Phospho-RSK by MSD ELISA (HCT116)
(§1) The protocol below describes an assay to measure the kinase activity of ERK1/2 to phosphorylate a substrate, p90RSK, in the presence or absence of a test compound.
HCT116 cells were grown in RPMI/10% FBS. Prior to the assay, 50,000 cells per well were plated in a 96 well flat bottom plate. Cells were cultured overnight in an incubator at 37° C.
Compound stocks were 10 mM in DMSO. A 1000× dilution was made in DMSO. 1 uL of the DMSO solution was transferred to 1 ml RPMI/10% FBS in a deep well plate. Media in the cell plate was discarded, and 100 uL of the compound-containing media was added. The preparation was incubated at 37° C. for 2 hrs.
Preparation of cell lysates are described below.
pRSK or total RSK MSD Assay
(§2) MSD plates: Blank MSD plates were coated with 30 uL capture antibody (BD 610226) at a final concentration of 1 ug/mL in PBS. Both pRSK and total RSK MSD assays used the same capture antibody at the same concentration. Antibody stock concentration was 250 ug/mL. Once antibody solution was added to MSD plate, the sides were tapped to be certain it was coated completely (visual inspection). It was then covered and placed at 4° C. overnight on a level surface.
Block MSD Plate: The coating antibody was removed and the plate was washed on a plate washer in MSD wash buffer. The last bit of wash solution was tapped out and 150 uL/well 3% BSA (MSD Blocker A) in MSD wash buffer was added. The preparation was placed on a shaker at room temperature for at least an hour.
Add samples: Media was removed from compound-treated cells and replaced with 55 uL/well MSD cell lysis buffer containing protease and phosphotase I & II inhibitors. The preparations was incubate on a shaker in a cold room for 30-45 min. The blocked MSD plate was washed on a plate washer, and the last bit of wash solution was tapped out. Next was added 50 uL (of the 55 uL) cell lysate in a well-well transfer. The preparation was covered and incubated on shaker at room temp for 2 hours. The lysate was then removed and washed on plate washer 3 times. The last bit of wash buffer was then tapped out and replaced with 25 uL/well detection antibody (described below).
For pRSK detection, a pRSK antibody stock of 21 ug/mL was prepared as follows: 1 ug/mL pRSK Ser380 antibody (Cell Signaling Technology, Cat. #9335)+1:750 anti-rabbit SulfoTag (from MSD, R32AB-1) in 1% BSA in MSD wash buffer.
(§3) For total RSK detection, a total RSK antibody stock of 200 ug/mL was prepared as follows: 1 ug/mL total RSK (Santa Cruz sc-231G) antibody+1:750 anti-goat SulfoTag (from MSD, R32AG-1) in 1% BSA in MSD wash buffer.
The plate was incubated for 1 hr at room temperature on a shaker, followed by three washes. The last bit of wash buffer was tapped out. Next, 150 uL/well 1×MSD Read buffer was added and the plate was analyzed by the MSD reader.

[3] = system: ERK1/2 phosphorylation of p90RSK in A375 cells; experiment: Detection of total and phosphor-RSK by MSD ELISA (A375); type: cell-based; settings: Homo sapiens, A-375, read-out: ERK1/ERK2 PRSK A375 EC50
Method: Detection of Total and Phosphor-RSK by MSD ELISA (A375)
as §1
A375 cells were grown in DMEM/10% FBS. Twenty four hours prior to the assay, 50,000 cells per well were plated in a 96 well flat bottom plate. Once cells attached to the plate, the medium was replaced with 100 ul of DMEM/0.1% FBS. Cells were cultured overnight in an incubator at 37° C.
Compound stock solutions of 10 mM in DMSO were prepared. 1000× dilutions were then prepared in DMSO. 1 uL of DMSO solution was then transferred to 1 ml DMEM/0.1% FBS in a deep well plate. Cell plate media was discarded, followed by addition of 100 uL of the compound-containing media. The preparation was incubated at 37° C. for 2 hrs.
Cell lysates were prepared as described below.
pRSK or Total RSK MSD Assay
as §2, with “added to the MSD plate,” for “added to MSD plate,”
Block MSD Plate: The coating antibody was removed and the plate was washed on a plate washer in MSD wash buffer. The last bit of wash solution was tapped out and 150 uL/well of 3% BSA in MSD wash buffer was added in. The preparation was placed on a shaker at room temperature for at least an hour.
Add samples: Media was removed from compound-treated cells and replaced with 55 uL/well MSD cell lysis buffer containing protease and phosphotase I & II inhibitors. The preparation was incubated on a shaker in a cold room for 30-45 min. The blocked MSD plate was washed a on plate washer, tapping out the last bit of wash solution, followed by addition of 50 uL (of the 55 ul) cell lysate in a well-well transfer. The preparation was covered and incubated on a shaker at room temp for 2 hours. The lysate was removed, washed on a plate washer 3 times, and the last bit of wash buffer was tapped out and replace with 25 uL/well detection antibody (described below).
For pRSK detection, a pRSK antibody stock of 21 ug/mL was prepared as follows: 1 ug/mL pRSK Ser380 antibody (Cell Signaling Technology, Cat. #9335)+1:750 anti-rabbit SulfoTag (Mesoscale Discovery, Cat. # R32AB-1) in 1% BSA in MSD wash buffer.
as §3
The plate was incubated for 1 hr at room temperature on a shaker, followed by three washings. The last bit of wash buffer was tapped out. 150 uL/well 1×MSD Read buffer was added and the plate was then analyzed.

[4] = system: ERK1/2 phosphorylation of p90RSK in HT29 cells; experiment: pRSK MSD Assay in HT29 cells; type: cell-based; settings: Homo sapiens, HT-29, read-out: ERK1/ERK2 PRSK MSD HT29 EC50
How it was run: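 Serum-starved HT29 cells (0.1% FBS overnight) treated with test compound for 120 min at 37° C, then lysed with protease and phosphatase inhibitors. Phospho-p90RSK quantified by MSD sandwich immunoassay: RSK capture antibody, phospho-RSK detection antibody plus Sulfo-tagged antibody, electrochemiluminescence read.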

T1 sequence (P27361 whole entry): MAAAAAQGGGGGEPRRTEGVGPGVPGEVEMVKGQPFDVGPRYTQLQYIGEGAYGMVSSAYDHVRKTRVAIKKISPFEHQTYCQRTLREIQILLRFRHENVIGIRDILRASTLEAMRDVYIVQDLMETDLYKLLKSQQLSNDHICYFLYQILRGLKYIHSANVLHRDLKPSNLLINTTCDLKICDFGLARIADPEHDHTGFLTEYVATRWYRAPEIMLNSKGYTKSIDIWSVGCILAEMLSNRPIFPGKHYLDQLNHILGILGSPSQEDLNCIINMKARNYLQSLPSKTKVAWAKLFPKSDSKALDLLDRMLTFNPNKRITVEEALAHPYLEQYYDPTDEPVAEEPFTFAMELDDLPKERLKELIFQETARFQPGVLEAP

With `C=CC(=O)Nc1cc(C)ccc1Nc1nc(N[C@H]2CCN(S(=O)(=O)C=C)C2)ncc1C(F)(F)F` [Compound I-279, (S)—N-(5-Methyl-2-((5-(trifluoromethyl)-2-((1-(vinylsulfonyl)pyrrolidin-3-yl)amino)pyrimidin-4-yl)amino)phenyl)acrylamide] the IC50 ([1]; MEK1 activated ERK1, ATP at KM, read-out: ERK1 Omnia WT ATP KM IC50) was 0.501 to 0.999 µM, the EC50 [2] was over 1 µM and the EC50 [3] was over 1 µM.
In the case of `C=CC(=O)Nc1cc(C)ccc1Nc1nc(Nc2cc(OC)nn2C)ncc1C(F)(F)F` [Compound I-430, N-(2-((2-((3-methoxy-1-methyl-1H-pyrazol-5-yl)amino)-5-(trifluoromethyl)pyrimidin-4-yl)amino)-5-methylphenyl)acrylamide], the IC50 ([1]; ATP at KM, WT) is reported as 0.501 to 0.999 µM, the EC50 [2] is reported as 0.501 to 0.999 µM and the EC50 [3] is reported as 0.501 to 0.999 µM.
In the case of `C=CC(=O)Nc1cc(C)ccc1Nc1nc(Nc2cnnc(OC)c2)ncc1C(F)(F)F` [Compound I-335, N-(2-((2-((6-methoxypyridazin-4-yl)amino)-5-(trifluoromethyl)pyrimidin-4-yl)amino)-5-methylphenyl)acrylamide], the EC50 [4] is reported as 0.501 to 0.999 µM, the EC50 [2] is reported as 0.501 to 0.999 µM and the EC50 [3] is reported as 0.501 to 0.999 µM.
Work on `C=CC(=O)Nc1ccccc1Nc1nc(Nc2ccnc(NC)c2)ncc1C(F)(F)F` [Compound I-321, N-(2-((2-((2-(methylamino)pyridin-4-yl)amino)-5-(trifluoromethyl)pyrimidin-4-yl)amino)phenyl)acrylamide] yielded an EC50 [4] of over 1 µM, an EC50 [2] of over 1 µM and an EC50 [3] of over 1 µM.
`C=CC(=O)Nc1cc(C)ccc1Nc1nc(Nc2cc(OC)ncc2OC)ncc1C(F)(F)F` [Compound I-406, N-(2-((2-((2,5-dimethoxypyridin-4-yl)amino)-5-(trifluoromethyl)pyrimidin-4-yl)amino)-5-methylphenyl)acrylamide] showed an EC50 [4] of 0.101 to 0.5 µM, an EC50 [2] of 0.101 to 0.5 µM and an EC50 [3] of 0.101 to 0.5 µM.
In the case of `C=CC(=O)Nc1cc(C)ccc1Nc1nc(Nc2cc(OC)nc(N3CCC(O)CC3)c2)ncc1C(F)(F)F` [Compound I-332, N-(2-((2-((2-(4-hydroxypiperidin-1-yl)-6-methoxypyridin-4-yl)amino)-5-(trifluoromethyl)pyrimidin-4-yl)amino)-5-methylphenyl)acrylamide], the EC50 [4] is reported as under 0.1 µM, the EC50 [2] is reported as 0.101 to 0.5 µM and the EC50 [3] is reported as 0.101 to 0.5 µM.
`C=CC(=O)Nc1ccccc1Nc1nc(Nc2cc(OC)nc(N3CCN(S(C)(=O)=O)CC3)c2)ncc1C(F)(F)F` [Compound I-290, N-(2-((2-((2-Methoxy-6-(4-(methylsulfonyl)piperazin-1-yl)pyridin-4-yl)amino)-5-(trifluoromethyl)pyrimidin-4-yl)amino)phenyl)acrylamide] showed an EC50 [4] of over 1 µM, an EC50 [2] of 0.501 to 0.999 µM and an EC50 [3] of over 1 µM.
`C=CC(=O)Nc1cc(Cl)ccc1Nc1nc(Nc2cc(OC)ncc2C)ncc1C(F)(F)F` [Compound I-289, N-(5-Chloro-2-((2-((2-methoxy-5-methylpyridin-4-yl)amino)-5-(trifluoromethyl)pyrimidin-4-yl)amino)phenyl)acrylamide] was tested, and the EC50 [4] was under 0.1 µM, the EC50 [2] was 0.101 to 0.5 µM and the EC50 [3] was under 0.1 µM.
`C=CC(=O)Nc1cc(C)ccc1Nc1nc(N[C@@H]2CCCN(S(=O)(=O)C=C)C2)ncc1C(F)(F)F` [Compound I-278, (R)—N-(5-Methyl-2-((5-(trifluoromethyl)-2-((1-(vinylsulfonyl)piperidin-3-yl)amino)pyrimidin-4-yl)amino)phenyl)acrylamide] gave an EC50 [4] of over 1 µM, an EC50 [2] of over 1 µM and an EC50 [3] of over 1 µM.
For `C#CCOc1cc(C)c(Nc2ncc(C(F)(F)F)c(Nc3ccc(C)cc3NC(=O)C=C)n2)cc1C(N)=O` [Compound I-362, 5-((4-((2-acrylamido-4-methylphenyl)amino)-5-(trifluoromethyl)pyrimidin-2-yl)amino)-4-methyl-2-(prop-2-yn-1-yloxy)benzamide], the EC50 [4] was 0.501 to 0.999 µM, the EC50 [2] was over 1 µM and the EC50 [3] was 0.501 to 0.999 µM.
`C=CC(=O)Nc1cc(C)ccc1Nc1nc(Nc2cc(OC)ncc2CF)ncc1C(F)(F)F` [Compound I-429, N-(2-((2-((5-(fluoromethyl)-2-methoxypyridin-4-yl)amino)-5-(trifluoromethyl)pyrimidin-4-yl)amino)-5-methylphenyl)acrylamide] gave an IC50 ([1]; ATP at KM, WT) of over 1 µM, an EC50 [2] of 0.501 to 0.999 µM and an EC50 [3] of 0.101 to 0.5 µM.
`C=CC(=O)Nc1cc(OC)ccc1Nc1nc(Nc2cc(OC)nc(N3CCN(C(C)=O)CC3)c2)ncc1Cl` [Compound I-297, N-(2-((2-((2-(4-acetylpiperazin-1-yl)-6-methoxypyridin-4-yl)amino)-5-chloropyrimidin-4-yl)amino)-5-methoxyphenyl)acrylamide] gave an EC50 [4] of under 0.1 µM, an EC50 [2] of under 0.1 µM and an EC50 [3] of over 1 µM.
Compound `C=CC(=O)Nc1cc(OCC(=O)N2CCN(C(C)=O)CC2)ccc1Nc1nc(Nc2cc(OC)ncc2C)ncc1C(F)(F)F` [Compound I-404, N-(5-(2-(4-acetylpiperazin-1-yl)-2-oxoethoxy)-2-((2-((2-methoxy-5-methylpyridin-4-yl)amino)-5-(trifluoromethyl)pyrimidin-4-yl)amino)phenyl)acrylamide] has an EC50 [4] of 0.101 to 0.5 µM, an EC50 [2] of 0.101 to 0.5 µM and an EC50 [3] of 0.101 to 0.5 µM.
Work on `C=CC(=O)Nc1cc(C)ccc1Nc1nc(Nc2cc(OC)ncc2CO)ncc1C(F)(F)F` [Compound I-428, N-(2-((2-((5-(hydroxymethyl)-2-methoxypyridin-4-yl)amino)-5-(trifluoromethyl)pyrimidin-4-yl)amino)-5-methylphenyl)acrylamide] yielded an IC50 ([1]; ATP at KM, WT) of over 1 µM, an EC50 [2] of 0.101 to 0.5 µM and an EC50 [3] of 0.101 to 0.5 µM.
